Consider one molecule from BindingDB's records for patent US11414428 (Auckland UniServices Limited, 2022).

The test deals with Indoleamine 2,3-dioxygenase 1 (Homo sapiens, UniProt P14902). In words: Enzymatic Assay. Here is the method: Recombinant human IDO1 (rhIDO1) was expressed and purified from cultures of EC538 strain of E. coli transformed with pREP4 and pQE9-IDO plasmid. Reaction mixes were set up in 384-well microplates containing 50 mM phosphate buffer, 10 mM ascorbic, 10 μM methylene blue, 100 μg/mL catalase, 80 μM TRP, 0.01% Tween 20 (v/v) mixed with rhIDO1 (15 μL) at a final concentration of 9 nM in a total volume of 30 μL assay medium. The plates were incubated at 37° C. for 30 min, and the enzymatic reaction was terminated by adding piperidine (200 mM) and heated at 65° C. for 20 min. Fluorescence intensity was read at λex 400 nm and λem 500 nm. Test compounds were dissolved in 100% DMSO and pre-diluted in assay medium prior to adding rhIDO1.

Molecules are shown by their SMILES.

Sequence of Indoleamine 2,3-dioxygenase 1 (P14902 whole entry): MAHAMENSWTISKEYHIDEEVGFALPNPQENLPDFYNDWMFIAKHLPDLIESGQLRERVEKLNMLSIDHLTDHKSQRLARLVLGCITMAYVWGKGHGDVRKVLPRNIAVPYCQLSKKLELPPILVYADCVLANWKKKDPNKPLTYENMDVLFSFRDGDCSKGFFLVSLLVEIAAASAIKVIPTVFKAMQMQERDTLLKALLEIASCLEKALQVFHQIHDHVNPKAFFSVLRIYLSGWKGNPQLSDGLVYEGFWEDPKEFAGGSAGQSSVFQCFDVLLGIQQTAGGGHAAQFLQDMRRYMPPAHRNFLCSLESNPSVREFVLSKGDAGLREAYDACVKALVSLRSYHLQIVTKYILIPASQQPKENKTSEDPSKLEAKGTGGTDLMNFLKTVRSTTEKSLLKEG

As to `Cc1nc2onc(N)c2c(C)c1Cl` [US11414428, Compound 1], the IC50 entry is “in the range around 5.5 µM”.
